Data published in US20230027075A1, “SULFONAMIDE COMPOUNDS TARGETING CD73 AND ADENOSINE RECEPTORS” (Aurigene Discovery Technologies Limited, priority 2019, published 2023).

Experiments:
[1] = molecular target: T1, human-CD73 (Trp27-Lys547, His-tag) (Homo sapiens, UniProt P21589); test: CD73 biochemical assay (colorimetric, Malachite Green phosphate detection); conditions: 2 nM CD73, 50 μM AMP; for inhibition at 20 µM: 20 μM compound, read-out: % inhibition at 20 μM (Percent inhibition data in CD73); for IC50: four-parameter curve fit, read-out: Potency (IC50 values) of selected compounds in CD73, group
T1 construct: human-CD73 (Trp27-Lys547, His-tag); His-tag
T1 sequence (P21589 27-547): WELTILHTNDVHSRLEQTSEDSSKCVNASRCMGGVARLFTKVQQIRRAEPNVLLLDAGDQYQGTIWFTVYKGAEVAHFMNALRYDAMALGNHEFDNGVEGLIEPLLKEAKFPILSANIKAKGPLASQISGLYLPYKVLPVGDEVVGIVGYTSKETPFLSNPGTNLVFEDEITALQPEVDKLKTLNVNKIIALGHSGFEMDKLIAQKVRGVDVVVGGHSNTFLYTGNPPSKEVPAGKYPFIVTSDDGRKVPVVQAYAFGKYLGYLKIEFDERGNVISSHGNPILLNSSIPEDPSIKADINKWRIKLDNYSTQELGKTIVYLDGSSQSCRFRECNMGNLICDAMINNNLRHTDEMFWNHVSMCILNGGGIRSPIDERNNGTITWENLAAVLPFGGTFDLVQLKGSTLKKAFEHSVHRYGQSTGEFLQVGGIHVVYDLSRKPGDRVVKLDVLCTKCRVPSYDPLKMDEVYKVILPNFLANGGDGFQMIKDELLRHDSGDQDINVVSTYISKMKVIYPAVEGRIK
Procedure: A colorimetric-based method was used for assaying compounds of the invention for CD73 enzyme inhibitory activity. Human CD73 catalyzes the conversion of AMP to adenosine with the release of orthophosphate. A Malachite Green Phosphate Detection kit is used to measure the formation of orthophosphate product. […] A compound of the present invention and enzyme are incubated for 30 minutes at room temperature. Next, 20 μL of AMP in assay buffer is added to the plate. The final concentration of CD73 and AMP are 2 nM and 50 μM respectively. Following 30 minutes reaction at room temperature, 20 μL of Malachite reagent is added to all the reaction wells. The formation of green complex formed between Malachite Green, molybdate and free orthophosphate is measured on a plate reader (620 nm).

A2aR = molecular target: T2, A2aR (Homo sapiens, UniProt P29274); test: A2aR biochemical assay (TR-FRET binding, Tag-lite A2aR labelled cells, fluorescent antagonist); conditions: 10 nM fluorescent A2aR antagonist; for inhibition at 20 µM: 20 μM compound, vs DMSO control, read-out: % inhibition at 20 μM (Percent inhibition data in A2aR); for IC50: four-parameter curve fit, read-out: Potency (IC50 values) of selected compounds in A2aR, group
T2 construct: expressed in transfected cells
T2 sequence (P29274 whole entry): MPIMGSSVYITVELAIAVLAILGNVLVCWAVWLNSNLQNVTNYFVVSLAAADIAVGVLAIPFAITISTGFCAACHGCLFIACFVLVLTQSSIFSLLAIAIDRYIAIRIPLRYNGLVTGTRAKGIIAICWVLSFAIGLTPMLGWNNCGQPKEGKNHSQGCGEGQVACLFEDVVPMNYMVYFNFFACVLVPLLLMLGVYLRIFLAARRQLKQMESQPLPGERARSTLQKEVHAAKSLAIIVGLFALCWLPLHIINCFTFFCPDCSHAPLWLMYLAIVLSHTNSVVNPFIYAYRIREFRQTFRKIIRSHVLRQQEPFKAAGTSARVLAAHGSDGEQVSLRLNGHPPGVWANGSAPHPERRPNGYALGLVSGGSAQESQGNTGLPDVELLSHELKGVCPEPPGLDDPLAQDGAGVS
Procedure: The compounds of present invention were assayed for A2aR enzyme binding activity in a TR-FRET based method. Typically, 10 μL of A2aR labelled cells in assay buffer (Tag-lite, 1×) is added to a 384-well plate containing 5 μL of a compound of present invention in final 1% DMSO, serially diluted in 1:5 in a 5-6 point titration. The aforesaid compound and cells are incubated for 30 minutes at room temperature. Next, 5 μL of A2aR antagonist (fluorescent ligand) in assay buffer is added to the plate. The final concentration of A2aR antagonist is 10 nM. Following 30 minutes reaction at room temperature, the plate was read on a plate reader (Ex: 340 nm Em: 615 nm and 665 nm) to measure the binding of test compound to A2aR cells. The results are interpreted as percentage inhibition as presented in Table-2A of binding by the test compound with respect to the DMSO control.

inhibition at 20 µM [1] [%]	IC50 [1] [nM]	inhibition at 20 µM (A2aR) [%]	IC50 (A2aR) [nM]	SMILES
94	110 to 1000	85	–	NC(=O)c1cc(S(=O)(=O)Nc2ccc(CCNc3cc(N)n4nc(-c5ccco5)nc4n3)nc2)cc(Cl)c1O [Example E2, 5-(N-(6-(2-((7-amino-2-(furan-2-yl)-[1,2,4]triazolo[1,5-a]pyrimidin-5-yl)amino)ethyl)pyridin-3-yl)sulfamoyl)-3-chloro-2-hydroxybenzamide]
98	110 to 1000	82	–	NC(=O)c1cc(S(=O)(=O)Nc2ccc(CCCOc3cc(N)n4nc(-c5ccco5)nc4n3)cc2)cc(Cl)c1O [Example A21, 5-(N-(4-(3-((7-amino-2-(furan-2-yl)-[1,2,4]triazolo[1,5-a]pyrimidin-5-yl)oxy)propyl)phenyl)sulfamoyl)-3-chloro-2-hydroxybenzamide]
99	110 to 1000	84	< 25	NC(=O)c1cc(S(=O)(=O)Nc2ccc(CCNc3nc(N)n4nc(-c5ccco5)nc4n3)c(O)c2)cc(Cl)c1O [Example A5, 5-(N-(4-(2-((7-amino-2-(furan-2-yl)-[1,2,4]triazolo[1,5-a][1,3,5]triazin-5-yl)amino)ethyl)-3-hydroxyphenyl)sulfamoyl)-3-chloro-2-hydroxybenzamide]
92	< 100	80	25.1 to 50	NC(=O)c1cc(S(=O)(=O)Nc2ccc(CCCNc3cc(N)n4nc(-c5ccco5)nc4n3)cc2)cc(Cl)c1O [Example A20, 5-(N-(4-(3-((7-amino-2-(furan-2-yl)-[1,2,4]triazolo[1,5-a]pyrimidin-5-yl)amino)propyl)phenyl)sulfamoyl)-3-chloro-2-hydroxybenzamide]
49	110 to 1000	85	–	NC(=O)c1cc(S(=O)(=O)Nc2ccc3ccn(CCNc4nc(N)n5nc(-c6ccco6)nc5n4)c3c2)cc(Cl)c1O [Example D1, 5-(N-(1-(2-((7-amino-2-(furan-2-yl)-[1,2,4]triazolo[1,5-a][1,3,5]triazin-5-yl)amino)ethyl)-1H-indol-6-yl)sulfamoyl)-3-chloro-2-hydroxybenzamide]
87	> 1000	82	–	NC(=O)c1cc(S(=O)(=O)Nc2ccc(CCCCNc3nc(N)n4nc(-c5ccco5)nc4n3)cc2)cc(Cl)c1O [Example A18, 5-(N-(4-(4-((7-amino-2-(furan-2-yl)-[1,2,4]triazolo[1,5-a][1,3,5]triazin-5-yl)amino)butyl)phenyl)sulfamoyl)-3-chloro-2-hydroxybenzamide]
97	110 to 1000	80	> 50	NC(=O)c1cc(S(=O)(=O)Nc2ccc(CNc3nc(N)n4nc(-c5ccco5)nc4n3)cc2)cc(Cl)c1O [Example A2, 5-(N-(4-(((7-amino-2-(furan-2-yl)-[1,2,4]triazolo[1,5-a][1,3,5]triazin-5-yl)amino)methyl)phenyl)sulfamoyl)-3-chloro-2-hydroxybenzamide]
99	< 100	72	> 50	NC(=O)c1cc(S(=O)(=O)Nc2ccc(CCCOc3nc(N)n4nc(-c5ccco5)nc4n3)cc2)cc(Cl)c1O [Example A12, 5-(N-(4-(3-((7-amino-2-(furan-2-yl)-[1,2,4]triazolo[1,5-a][1,3,5]triazin-5-yl)oxy)propyl)phenyl)sulfamoyl)-3-chloro-2-hydroxybenzamide]
96	110 to 1000	83	< 25	NC(=O)c1cc(S(=O)(=O)Nc2ccc(CCNc3nc(N)n4nc(-c5ccco5)nc4n3)cc2)cc(Cl)c1O [Example A3, 5-(N-(4-(2-((7-amino-2-(furan-2-yl)-[1,2,4]triazolo[1,5-a][1,3,5]triazin-5-yl)amino)ethyl)phenyl)sulfamoyl)-3-chloro-2-hydroxybenzamide]
9	–	88	–	Nc1nc(NCCc2ccc(NS(=O)(=O)c3cc(Cl)c4[nH]ccc(=O)c4c3)cc2)nc2nc(-c3ccco3)nn12 [Example B3, N-(4-(2-((7-amino-2-(furan-2-yl)-[1,2,4]triazolo[1,5-a][1,3,5]triazin-5-yl)amino)ethyl)phenyl)-8-chloro-4-oxo-1,4-dihydroquinoline-6-sulfonamide]
86	> 1000	83	–	NC(=O)c1cc(S(=O)(=O)Nc2ccc(CCNc3nc(N)n4nc(-c5ccco5)nc4n3)nc2)cc(Cl)c1O [Example E1, 5-(N-(6-(2-((7-amino-2-(furan-2-yl)-[1,2,4]triazolo[1,5-a][1,3,5]triazin-5-yl)amino)ethyl)pyridin-3-yl)sulfamoyl)-3-chloro-2-hydroxybenzamide]
95	110 to 1000	82	–	CN(CCCc1ccc(NS(=O)(=O)c2cc(Cl)c(O)c(C(N)=O)c2)cc1)c1nc(N)n2nc(-c3ccco3)nc2n1 [Example A17, 5-(N-(4-(3-((7-amino-2-(furan-2-yl)-[1,2,4]triazolo[1,5-a][1,3,5]triazin-5-yl)(methyl)amino)propyl)phenyl)sulfamoyl)-3-chloro-2-hydroxybenzamide]
96	> 1000	83	–	NC(=O)c1cc(S(=O)(=O)Nc2ccc(CCCNc3cc4nc(-c5ccco5)nn4c(N)n3)cc2)cc(Cl)c1O [Example A19, 5-(N-(4-(3-((5-amino-2-(furan-2-yl)-[1,2,4]triazolo[1,5-c]pyrimidin-7-yl)amino)propyl)phenyl)sulfamoyl)-3-chloro-2-hydroxybenzamide]
63	–	83	–	COc1c(Cl)cc(S(=O)(=O)Nc2ccc(CCCNc3nc(N)n4nc(-c5ccco5)nc4n3)cc2)cc1C(N)=O [Example A16, 5-(N-(4-(3-((7-amino-2-(furan-2-yl)-[1,2,4]triazolo[1,5-a][1,3,5]triazin-5-yl)amino)propyl)phenyl)sulfamoyl)-3-chloro-2-methoxybenzamide]
62	> 1000	79	–	NC(=O)c1cc(S(=O)(=O)Nc2cccc3c2cnn3CCNc2nc(N)n3nc(-c4ccco4)nc3n2)cc(Cl)c1O [Example D2, 5-(N-(1-(2-((7-amino-2-(furan-2-yl)-[1,2,4]triazolo[1,5-a][1,3,5]triazin-5-yl)amino)ethyl)-1H-indazol-4-yl)sulfamoyl)-3-chloro-2-hydroxybenzamide]
42	–	84	–	NC(=O)c1cc(S(=O)(=O)Nc2ccc(CCNc3nc(N)n4nc(-c5ccco5)nc4n3)cc2F)cc(Cl)c1O [Example A7, 5-(N-(4-(3-((7-amino-2-(furan-2-yl)-[1,2,4]triazolo[1,5-a][1,3,5]triazin-5-yl)amino)ethyl)-2-fluorophenyl)sulfamoyl)-3-chloro-2-hydroxybenzamide]
96	110 to 1000	83	–	NC(=O)c1cc(S(=O)(=O)Nc2ccc(CCCNc3nc(N)n4nc(-c5ccco5)nc4n3)cc2F)cc(Cl)c1O [Example A15, 5-(N-(4-(3-((7-amino-2-(furan-2-yl)-[1,2,4]triazolo[1,5-a][1,3,5]triazin-5-yl)amino)propyl)-2-fluorophenyl)sulfamoyl)-3-chloro-2-hydroxybenzamide]

SMILES	inhibition at 20 µM [1] [%]	IC50 [1] [nM]	inhibition at 20 µM (A2aR) [%]	IC50 (A2aR) [nM]
COC(=O)[C@@H](NC(=O)Oc1c(Cl)cc(S(=O)(=O)Nc2ccc(CCCNc3nc(N)n4nc(-c5ccco5)nc4n3)cc2)cc1C(N)=O)C(C)C [Example A25, Methyl ((4-(N-(4-(3-((7-amino-2-(furan-2-yl)-[1,2,4]triazolo[1,5-a][1,3,5]triazin-5-yl)amino)propyl)phenyl)sulfamoyl)-2-carbamoyl-6-chlorophenoxy)carbonyl)valinate]	99	< 100	81	–
